Measured values taken from article PMC10698186 (Nature Communications, 2023).
Entries after “also recorded” stand apart in the source; their conditions may differ.

What was measured:
[1] = system: SK-BR-3, SK-OV-3, JIMT-1 and MCF7 cells; assay: Cell viability, all cells of Fig. 4d; assay type: cell-based; conditions: SK-BR-3, SK-OV-3, JIMT-1, MCF7; CellTiter Glo; n = 3 independent experiments
Protocol: (§1) Cells were seeded in a 96-well white opaque plate at a density of 5 × 10^3/well (CHO, ATCC, CCL-61) or 1 × 10^4/well (MCF7 (ATCC, HTB-22), SK-BR-3 (ATCC, HTB-30), SK-OV-3 (ATCC, HTB-77) or JIMT-1(Beyotime, C6453)). Cells were allowed to attach for 24 h at 37 °C and 5% CO2 in humidified atmosphere. Cells were then treated with serial dilutions of Tra-CAST, Tra-CAST-MMAE and SBA-MMAE or Tra-CASTi, Tra-CASTi-MMAE and DBCO-MMAE for 96 h (BT474, MCF7, SK-BR-3). Cell viability was determined using CellTiter Glo reagents (G7571) and was normalized to the control cells. Data was analyzed by Graphpad software, and the half-maximal effective concentration (EC50) value was calculated by fitting with the log(inhibitor) vs. response module.
10! […]
(§2) Our selected nanobody binds to human serum albumin (HSA)7, The functional impact of inserting CAST to nanobody was evaluated by measuring the affinity to human serum albumin using Biolayer Interferometry at room temperature. […]
Cells were seeded in a 96-well white opaque plate at a density of 5 × 10^3/well (CHO) or 1 × 10^4/well (MCF7, SK-BR-3, SK-OV-3 or JIMT-1). […] Cell viability was determined using CellTiter Glo reagents (G7571) and was normalized to the control cells. Data was analyzed by Graphpad software, and the half-maximal effective concentration (EC50) value was calculated by fitting with the log(inhibitor) vs. response module. […]

[2] = PBS; conditions: 95 °C, up to 1 hour
[3] = 10 mM cysteine in PBS; conditions: 95 °C, up to 1 hour
[4] = mouse plasma; conditions: Male BALB/c mice, 37 °C, up to 144 h
[5] = fresh serum; conditions: Male BALB/c mice, 37 °C, up to 20 hours (table); 21 h (methods)
[6] = 20 mM glutathione, PBS (pH 7.4); conditions: 37 °C, up to 22 h
[7] = system: CHO, MCF7, SK-BR-3 cells; assay: Cell viability, all cell lines of Supplementary Fig. 38; assay type: cell-based; conditions: 96 h, CellTiter Glo
Protocol: as §1
Deconvolutedmass (Da) Deconvolutedmass (Da)
Supplementary Figure 37. ESI ion series/deconvolution MS spectra: reactions between […]
trastuzumab-CAST and 1C and SBA-MMAE. a. […]
as §2
Cells were seeded in a 96-well white opaque plate at a density of 5 × 10^3/well (CHO) or 1 × 10^4/well (MCF7, SK-BR-3, SK-OV-3 or JIMT-1). […] Cell viability was determined using CellTiter Glo reagents (G7571) and was normalized to the control cells. Data was analyzed by […]

Row | Substance | cleaved bond [5] | further results
1 | DBCO-PEG3-Glu-Val-Cit-PAB-MMAE [DBCO-MMAE] | – | toxicity towards all cells [1]: minimal toxicity
2 | DLAAEIAKHCG | – | fragment found [2]: Maleimide hydrolysis byproduct, 1h; fragment found [3]: Maleimide hydrolysis byproduct, 1h; also recorded: SM:DLAAEIAKHCG, 1h
3 | Phenyl-PEG2-FFKKDDHAA | – | cleaved bond [4]: F-K, 18 h; also recorded: F-F, 48 h; fragment found [4]: Phenyl-PEG2-FFKK, 48 h
4 | Phenyl-PEG2-IAPDDHAA | – | not cleaved [4]: remained intact following incubation in plasma for 144 h
5 | Phenyl-PEG2-SPG-FFKKDDHAA | P-G, 3 hours; also recorded: F-K, 3 hours; also recorded: G-F, 3 hours | –
6 | Phenyl-PEG2-SPG-HAQDDHAA | P-G, 3 hours | –
7 | Phenyl-PEG2-SPG-IAPDDHAA | G-I, 3 hours; also recorded: D-D, 20 hours; also recorded: P-G, 20 hours | –
8 | Phenyl-PEG2-SPG-IAQDDHAA | G-I, 3 hours | –
9 | Phenyl-PEG2-SPG-IKAQDDHAA | I-K, 3 hours; also recorded: G-I, 3 hours; also recorded: A-Q, 3 hours; also recorded: P-G, 3 hours | –
10 | Phenyl-PEG2-SPG-INDPDDHAA | P-G, 3 hours; also recorded: G-I, 20 hours | –
11 | Phenyl-PEG2-SPG-KAQDDHAA | P-G, 3 hours; also recorded: G-K, 3 hours | –
12 | Phenyl-PEG2-SPG-LKQDDHAA | G-L, 3 hours | –
13 | Phenyl-PEG2-SPG-MEQDDHAA | G-M, 3 hours; also recorded: P-G, 3 hours | –
14 | Phenyl-PEG2-SPG-NAPDDHAA | G-N, 20 hours; also recorded: P-G, 20 hours | –
15 | Phenyl-PEG2-SPG-NAQDDHAA | G-N, 3 hours; also recorded: P-G, 3 hours | –
16 | Phenyl-PEG2-SPG-NEQDDHAA | P-G, 3 hours; also recorded: G-N, 20 hours | –
17 | Phenyl-PEG2-SPG-NKKDDHAA | G-N, 3 hours | –
18 | Phenyl-PEG2-SPG-SHAQDDHAA | G-S, 3 hours; also recorded: P-G, 3 hours | –
19 | Phenyl-PEG2-SPG-SKAQDDHAA | G-S, 3 hours; also recorded: P-G, 3 hours | –
20 | WCGIAPDDHAA [maleimide modified WCGIAPDDHAA] | – | fragment found [6]: released free peptide WCGIAPDDHAA, 22 h; also recorded: maleimide hydrolysis byproducts, 22 h
21 | WCGIAPDDHAA [maleimide-WCGIAPDDHAA] | – | fragment found [6]: WCGIAPDDHAA, 22 h
22 | styrylboronic acid-Val-Cit-PAB-monomethyl auristatin E [SBA-MMAE] | – | toxicity in all cell lines at the tested concentrations [7]: displayed toxicity and could not effectively distinguish HER2-negative MCF7 cells or HER2-positive SK-BR-3 cells
